# Data: patent publication US20250368619A1, “SUBSTITUTED TETRAHYDROCYCLOHEPTA[E]INDOLE DERIVATIVES, PROCESSES FOR THEIR PREPARATION AND THERAPEUTIC USES THEREOF” (SANOFI, priority 2022, published 2025)
# Target: T1, ERα (Homo sapiens, UniProt P03372)
# T1 construct: host or cells: MCF7
# T1 sequence (P03372 1-595): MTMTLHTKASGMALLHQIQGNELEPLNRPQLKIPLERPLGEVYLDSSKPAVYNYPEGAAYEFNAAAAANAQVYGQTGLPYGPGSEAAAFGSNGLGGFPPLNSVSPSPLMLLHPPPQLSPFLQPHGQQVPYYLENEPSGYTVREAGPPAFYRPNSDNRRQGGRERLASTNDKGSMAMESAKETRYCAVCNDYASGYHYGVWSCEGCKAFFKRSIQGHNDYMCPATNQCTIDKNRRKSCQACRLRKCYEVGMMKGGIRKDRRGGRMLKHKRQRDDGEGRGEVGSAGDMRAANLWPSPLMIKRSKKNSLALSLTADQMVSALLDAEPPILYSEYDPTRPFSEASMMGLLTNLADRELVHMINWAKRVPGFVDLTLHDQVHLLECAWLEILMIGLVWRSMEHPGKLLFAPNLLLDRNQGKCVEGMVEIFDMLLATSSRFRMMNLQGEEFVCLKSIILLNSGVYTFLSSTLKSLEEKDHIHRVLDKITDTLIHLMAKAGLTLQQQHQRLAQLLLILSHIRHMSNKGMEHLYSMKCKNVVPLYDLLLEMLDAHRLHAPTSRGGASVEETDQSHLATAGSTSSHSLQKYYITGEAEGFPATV
# Experiment: Estrogen receptor degradation activity: breast cancer cell ERα in cell western assay in MCF7 cells
# Assay type: cell-based
# Conditions: 4 hours, relative to fulvestrant 0.1 μM positive control
# Description: Test: Estrogen receptor degradation activity
# Said test involves measuring the in vitro degradation activity of the compounds of the table 1.
# The measurements of the degradation activities were made using a breast cancer cell ERα in cell western assay as described hereunder.
# MCF7 cells (ATCC) were seeded in 384 wells microplate (collagen coated) at a concentration of 10000 cells/30 μL per well in red phenol free MEM alpha medium (invitrogen) containing 5% charcoal dextran striped FBS. The following day, 9 points serial 1:5 dilution of each compound was added to the cells in 2.5 μL at final concentrations ranging from 0.3-0.0000018 μM (in table 2), or 0.1 μM for fulvestrant (using as positive control). At 4 hours post compound addition the cells were fixed by adding 25 μL of formalin (final concentration 5% formalin containing 0.1% triton) for 10 minutes at RT and then washed twice with PBS. Then, 50 μL of LI-COR blocking buffer containing 0.1% Triton was added to plate for 30 minutes at RT. LI-COR blocking buffer was removed and cells were incubated overnight at cold room with 50 μL anti-ER rabbit monoclonal antibody (Thermo scientific MA1-39540) diluted at 1:1000 in LI-COR blocking buffer containing 0.1% tween-20. Wells which were treated with blocking buffer but no antibody were used as background control. Wells were washed twice with PBS (0.1% tween-20) and incubated at 37° C. for 60 minutes in LI-COR (0.1% tween-20) containing goat anti-rabbit antibody Alexa 488 (1:1000) and Syto-64 a DNA dye (2 μM final concentration). Cells were then washed 3 times in PBS and scanned in ACUMEN explorer (TTP-Labtech). Integrated intensities in the green fluorescence and red fluorescence were measured to determine the levels of ERα and DNA respectively.
# The degradation activity with respect to estrogen receptors in this test is given by the concentration which degrades 50% of the estrogen receptor (or IC50) in nM.
# The % of ERα levels decrease were determined as follows: % inhibition=100*(1−(sample−fulvestrant:DMSO−fulvestrant)).
row,% Degradation At 0.3 μM,Compound
1,69%,"OC/C=C/C1=C(c2ccc(CC3CN(CCCF)C3)cc2)c2ccc3[nH]ccc3c2CCC1 [Compound 17, (E)-3-(6-(4-((1-(3-fluoropropyl)azetidin-3-yl)methyl)phenyl)-3,8,9,10-tetrahydrocyclohepta[e]indol-7-yl)prop-2-en-1-ol]"
2,77%,"CC(C)(O)/C=C/C1=C(c2ccc(CC3CN(CCCF)C3)cc2)c2ccc3[nH]ccc3c2CCC1 [Compound 18, (E)-4-(6-(4-((1-(3-fluoropropyl)azetidin-3-yl)methyl)phenyl)-3,8,9,10-tetrahydrocyclohepta[e]indol-7-yl)-2-methylbut-3-en-2-ol]"
3,71%,"OCc1cccc(C2=C(c3ccc(CC4CN(CCCF)C4)cc3)c3ccc4[nH]ccc4c3CCC2)c1 [Compound 19, (3-(6-(4-((1-(3-fluoropropyl)azetidin-3-yl)methyl)phenyl)-3,8,9,10-tetrahydrocyclohepta[e]indol-7-yl)phenyl)methanol]"
4,76%,"OCc1ccc(C2=C(c3ccc(CC4CN(CCCF)C4)cc3)c3ccc4[nH]ccc4c3CCC2)cc1 [Compound 20, (4-(6-(4-((1-(3-fluoropropyl)azetidin-3-yl)methyl)phenyl)-3,8,9,10-tetrahydrocyclohepta[e]indol-7-yl)phenyl)methanol]"
5,65%,"OCCc1cccc(C2=C(c3ccc(CC4CN(CCCF)C4)cc3)c3ccc4[nH]ccc4c3CCC2)c1 [Compound 21, 2-(3-(6-(4-((1-(3-fluoropropyl)azetidin-3-yl)methyl)phenyl)-3,8,9,10-tetrahydrocyclohepta[e]indol-7-yl)phenyl)ethan-1-ol]"
6,68%,"O=C(O)c1cccc(C2=C(c3ccc(CC4CN(CCCF)C4)cc3)c3ccc4[nH]ccc4c3CCC2)c1 [Compound 22, 3-(6-(4-((1-(3-fluoropropyl)azetidin-3-yl)methyl)phenyl)-3,8,9,10-tetrahydrocyclohepta[e]indol-7-yl)benzoic acid]"
7,80%,"O=C(O)C(F)(F)F.O=C(O)c1ccc(C2=C(c3ccc(CC4CN(CCCF)C4)cc3)c3ccc4[nH]ccc4c3CCC2)cc1 [Compound 23, 4-(6-(4-((1-(3-fluoropropyl)azetidin-3-yl)methyl)phenyl)-3,8,9,10-tetrahydrocyclohepta[e]indol-7-yl)benzoic acid, 2,2,2-trifluoroacetic acid]"
8,92%,"O=C(O)/C=C/C1=C(c2ccc(CC3CN(CCCF)C3)cc2)c2ccc3[nH]ccc3c2CCC1 [Compound 24, (E)-3-(6-(4-((1-(3-fluoropropyl)azetidin-3-yl)methyl)phenyl)-3,8,9,10-tetrahydrocyclohepta[e]indol-7-yl)acrylic acid]"

# Further lines, the compound ahead of its results:
row,Compound,% Degradation At 0.3 μM
1,"Cc1cc(F)ccc1C1=C(c2ccc(CC3CN(CCCF)C3)cc2)c2ccc3[nH]ccc3c2CCC1 [Compound 1, 7-(4-fluoro-2-methylphenyl)-6-(4-((1-(3-fluoropropyl)azetidin-3-yl)methyl)phenyl)-3,8,9,10-tetrahydrocyclohepta[e]indole]",80%
2,"COc1nccc(C2=C(c3ccc(CC4CN(CCCF)C4)cc3)c3ccc4[nH]ccc4c3CCC2)c1F [Compound 2, 7-(3-fluoro-2-methoxypyridin-4-yl)-6-(4-((1-(3-fluoropropyl)azetidin-3-yl)methyl)phenyl)-3,8,9,10-tetrahydrocyclohepta[e]indole]",92%
3,"Cc1c(Cl)cccc1C1=C(c2ccc(C=C3CN(CCCF)C3)cc2)c2ccc3[nH]ccc3c2CCC1 [Compound 3, 7-(3-chloro-2-methylphenyl)-6-(4-((1-(3-fluoropropyl)azetidin-3-ylidene)methyl)phenyl)-3,8,9,10-tetrahydrocyclohepta[e]indole]",91%
4,"FCCCN1CC[C@H](Oc2ccc(C3=C(c4ccc(Cl)cc4Cl)CCCc4c3ccc3[nH]ccc43)cc2)C1 [Compound 4, (S)-7-(2,4-dichlorophenyl)-6-(4-((1-(3-fluoropropyl)pyrrolidin-3-yl)oxy)phenyl)-3,8,9,10-tetrahydrocyclohepta[e]indole]",85%
5,"FCCCN1CC[C@H](Oc2ccc(C3=C(C4=CCC(F)(F)CC4)CCCc4c3ccc3[nH]ccc43)cc2)C1 [Compound 5, (S)-7-(4,4-difluorocyclohex-1-en-1-yl)-6-(4-((1-(3-fluoropropyl)pyrrolidin-3-yl)oxy)phenyl)-3,8,9,10-tetrahydrocyclohepta[e]indole]",95%
6,"Oc1c(F)ccc(C2=C(c3ccc(CC4CN(CCCF)C4)cc3)c3ccc4[nH]ccc4c3CCC2)c1F [Compound 6, 2,6-difluoro-3-(6-(4-((1-(3-fluoropropyl)azetidin-3-yl)methyl)phenyl)-3,8,9,10-tetrahydrocyclohepta[e]indol-7-yl)phenol]",90%
7,"FCCCN1CC(Cc2ccc(C3=C(c4ccc(Cl)cc4Cl)CCCc4c3ccc3[nH]ccc43)cc2)C1 [Compound 7, 7-(2,4-dichlorophenyl)-6-(4-((1-(3-fluoropropyl)azetidin-3-yl)methyl)phenyl)-3,8,9,10-tetrahydrocyclohepta[e]indole]",82%
8,"Cc1c(Cl)cccc1C1=C(c2ccc(CC3CN(CCCF)C3)cc2)c2ccc3[nH]ccc3c2CCC1 [Compound 8, 7-(3-chloro-2-methylphenyl)-6-(4-((1-(3-fluoropropyl)azetidin-3-yl)methyl)phenyl)-3,8,9,10-tetrahydrocyclohepta[e]indole]",83%
9,"COc1cccc(C2=C(c3ccc(CC4CN(CCCF)C4)cc3)c3ccc4[nH]ccc4c3CCC2)c1OC [Compound 9, 7-(2,3-dimethoxyphenyl)-6-(4-((1-(3-fluoropropyl)azetidin-3-yl)methyl)phenyl)-3,8,9,10-tetrahydrocyclohepta[e]indole]",80%
10,"FCCCN1CC(Cc2ccc(C3=C(c4cccc(C(F)(F)F)c4)CCCc4c3ccc3[nH]ccc43)cc2)C1 [Compound 10, 6-(4-((1-(3-fluoropropyl)azetidin-3-yl)methyl)phenyl)-7-(3-(trifluoromethyl)phenyl)-3,8,9,10-tetrahydrocyclohepta[e]indole]",73%
11,"N#Cc1cccc(C2=C(c3ccc(CC4CN(CCCF)C4)cc3)c3ccc4[nH]ccc4c3CCC2)c1 [Compound 11, 3-(6-(4-((1-(3-fluoropropyl)azetidin-3-yl)methyl)phenyl)-3,8,9,10-tetrahydrocyclohepta[e]indol-7-yl)benzonitrile]",75%
12,"N#Cc1ccccc1C1=C(c2ccc(CC3CN(CCCF)C3)cc2)c2ccc3[nH]ccc3c2CCC1 [Compound 12, 2-(6-(4-((1-(3-fluoropropyl)azetidin-3-yl)methyl)phenyl)-3,8,9,10-tetrahydrocyclohepta[e]indol-7-yl)benzonitrile]",85%
13,"N#Cc1ccc(C2=C(c3ccc(CC4CN(CCCF)C4)cc3)c3ccc4[nH]ccc4c3CCC2)cc1 [Compound 13, 4-(6-(4-((1-(3-fluoropropyl)azetidin-3-yl)methyl)phenyl)-3,8,9,10-tetrahydrocyclohepta[e]indol-7-yl)benzonitrile]",72%
14,"COc1cc(C2=C(c3ccc(CC4CN(CCCF)C4)cc3)c3ccc4[nH]ccc4c3CCC2)ccn1 [Compound 14, 6-(4-((1-(3-fluoropropyl)azetidin-3-yl)methyl)phenyl)-7-(2-methoxypyridin-4-yl)-3,8,9,10-tetrahydrocyclohepta[e]indole]",91%
15,"COc1ccc(C2=C(c3ccc(CC4CN(CCCF)C4)cc3)c3ccc4[nH]ccc4c3CCC2)cn1 [Compound 15, 6-(4-((1-(3-fluoropropyl)azetidin-3-yl)methyl)phenyl)-7-(6-methoxypyridin-3-yl)-3,8,9,10-tetrahydrocyclohepta[e]indole]",91%
16,"FCCCN1CC(Cc2ccc(C3=C(C4=CCOCC4)CCCc4c3ccc3[nH]ccc43)cc2)C1 [Compound 16, 7-(3,6-dihydro-2H-pyran-4-yl)-6-(4-((1-(3-fluoropropyl)azetidin-3-yl)methyl)phenyl)-3,8,9,10-tetrahydrocyclohepta[e]indole]",74%
